# Source: PubChem BioAssay (NCI)
# Where “and” joins values, the source holds several entries; their conditions need not be identical. Equal values may be shown once.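 Grown in 96-well plates, cells were treated for 48 hours with each compound at five concentrations. Insufficient inhibition: endpoint recorded as highest concentration tested. GI50 is the concentration that inhibits growth by half. The concentration for full growth arrest is given as TGI.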
# Test system: OVCAR-4 ovarian
# Assay: inhibition of tumour cell growth, NCI panel, 48 h
Compound,GI50,TGI [µM]
O=C1NC(=NC(CO)Cc2ccccc2)S/C1=C\c1ccc2ncccc2c1 (stereo not given),> 21400 nM and 4170 nM,> 25
Cc1nnc(NC(=O)c2nc(S(=O)(=O)Cc3ccc(F)cc3)ncc2Cl)s1,1800 nM,3.8
CC(C)[C@@H]1C=C2CC[C@H]3[C@](C)(CN)CCC[C@]3(C)[C@H]2CC1,15100 nM,34.3
Nc1cc(NN=C(c2ccc(O)cc2)c2ccc(O)cc2)c([N+](=O)[O-])cc1[N+](=O)[O-],2540 nM,7.47
O=C(Nc1ccc(Oc2ccc(Nc3nc4ccccc4s3)cc2)cc1)Nc1ccc(Cl)c(C(F)(F)F)c1,1310 nM,3.16
Nc1c(C(=O)Nc2cccc(C(F)(F)F)c2)sc2nc3c(cc12)CCCCC3,1210 nM,3.9
Nc1ccc(C2=NNC(=O)Cc3cc4c(cc32)OCCO4)cc1Cl,35300 nM,> 50
COc1ccc2nc3cc(Cl)ccc3c(NCCNCC(C)O)c2c1 (stereo not given),1570 nM,4.8
CCCOc1cc2ccccc2cc1C(=O)Nc1nc(N)c2c(ccc3nccc32)[nH]1,1550 nM,4.37
CC1(C)OC1COc1c2occc2cc2ccc(=O)oc12 (stereo not given),–,> 100
Nc1n[nH]c2cc(F)c([C@@H]3Nc4ccc5[nH]ncc5c4[C@H]4C5CCC(C5)[C@@H]34)cc12 (stereo not given in full),327 nM,> 50
COc1ccc(CCN=C2NC(=O)/C(=C/c3ccc4ncccc4c3)S2)cc1,> 25000 nM,> 25

# Test system: OVCAR-5 ovarian
# Assay: inhibition of tumour cell growth, NCI panel, 48 h
Compound,GI50,TGI [µM]
O=C1NC(=NC(CO)Cc2ccccc2)S/C1=C\c1ccc2ncccc2c1 (stereo not given),> 25000 nM and 6830 nM,> 25
Cc1nnc(NC(=O)c2nc(S(=O)(=O)Cc3ccc(F)cc3)ncc2Cl)s1,12400 nM,25.4
CC(C)[C@@H]1C=C2CC[C@H]3[C@](C)(CN)CCC[C@]3(C)[C@H]2CC1,2220 nM,5.38
Nc1cc(NN=C(c2ccc(O)cc2)c2ccc(O)cc2)c([N+](=O)[O-])cc1[N+](=O)[O-],2850 nM,8.44
O=C(Nc1ccc(Oc2ccc(Nc3nc4ccccc4s3)cc2)cc1)Nc1ccc(Cl)c(C(F)(F)F)c1,1640 nM,3.61
Nc1c(C(=O)Nc2cccc(C(F)(F)F)c2)sc2nc3c(cc12)CCCCC3,3430 nM,17.3
Nc1ccc(C2=NNC(=O)Cc3cc4c(cc32)OCCO4)cc1Cl,7960 nM,> 50
COc1ccc2nc3cc(Cl)ccc3c(NCCNCC(C)O)c2c1 (stereo not given),1670 nM,6.3
CCCOc1cc2ccccc2cc1C(=O)Nc1nc(N)c2c(ccc3nccc32)[nH]1,911 nM,2.98
CC1(C)OC1COc1c2occc2cc2ccc(=O)oc12 (stereo not given),–,> 100
Nc1n[nH]c2cc(F)c([C@@H]3Nc4ccc5[nH]ncc5c4[C@H]4C5CCC(C5)[C@@H]34)cc12 (stereo not given in full),326 nM,24.4
COc1ccc(CCN=C2NC(=O)/C(=C/c3ccc4ncccc4c3)S2)cc1,> 25000 nM,> 25

# Test system: RXF 393 renal
# Assay: inhibition of tumour cell growth, NCI panel, 48 h
Compound,GI50,TGI
O=C1NC(=NC(CO)Cc2ccccc2)S/C1=C\c1ccc2ncccc2c1 (stereo not given),11500 nM and 3820 nM,> 25 µM and 10.7 µM
Cc1nnc(NC(=O)c2nc(S(=O)(=O)Cc3ccc(F)cc3)ncc2Cl)s1,1850 nM,3.51 µM
CC(C)[C@@H]1C=C2CC[C@H]3[C@](C)(CN)CCC[C@]3(C)[C@H]2CC1,1770 nM,3.56 µM
Nc1cc(NN=C(c2ccc(O)cc2)c2ccc(O)cc2)c([N+](=O)[O-])cc1[N+](=O)[O-],1590 nM,3.15 µM
O=C(Nc1ccc(Oc2ccc(Nc3nc4ccccc4s3)cc2)cc1)Nc1ccc(Cl)c(C(F)(F)F)c1,1800 nM,4 µM
Nc1c(C(=O)Nc2cccc(C(F)(F)F)c2)sc2nc3c(cc12)CCCCC3,1840 nM,4.86 µM
Nc1ccc(C2=NNC(=O)Cc3cc4c(cc32)OCCO4)cc1Cl,5270 nM,19.3 µM
COc1ccc2nc3cc(Cl)ccc3c(NCCNCC(C)O)c2c1 (stereo not given),1610 nM,3.37 µM
CCCOc1cc2ccccc2cc1C(=O)Nc1nc(N)c2c(ccc3nccc32)[nH]1,42.6 nM,1.16 µM
CC1(C)OC1COc1c2occc2cc2ccc(=O)oc12 (stereo not given),–,> 100 µM
Nc1n[nH]c2cc(F)c([C@@H]3Nc4ccc5[nH]ncc5c4[C@H]4C5CCC(C5)[C@@H]34)cc12 (stereo not given in full),124 nM,2.52 µM
COc1ccc(CCN=C2NC(=O)/C(=C/c3ccc4ncccc4c3)S2)cc1,> 25000 nM,> 25 µM

# Test system: SNB-19 CNS
# Assay: inhibition of tumour cell growth, NCI panel, 48 h
Compound,GI50,TGI [µM]
O=C1NC(=NC(CO)Cc2ccccc2)S/C1=C\c1ccc2ncccc2c1 (stereo not given),> 25 µM and 4.34 µM,> 25
Cc1nnc(NC(=O)c2nc(S(=O)(=O)Cc3ccc(F)cc3)ncc2Cl)s1,15.6 µM,35.1
CC(C)[C@@H]1C=C2CC[C@H]3[C@](C)(CN)CCC[C@]3(C)[C@H]2CC1,8.17 µM,21.1
Nc1cc(NN=C(c2ccc(O)cc2)c2ccc(O)cc2)c([N+](=O)[O-])cc1[N+](=O)[O-],2.32 µM,7.12
O=C(Nc1ccc(Oc2ccc(Nc3nc4ccccc4s3)cc2)cc1)Nc1ccc(Cl)c(C(F)(F)F)c1,1.71 µM,3.62
Nc1c(C(=O)Nc2cccc(C(F)(F)F)c2)sc2nc3c(cc12)CCCCC3,4.24 µM,19.8
Nc1ccc(C2=NNC(=O)Cc3cc4c(cc32)OCCO4)cc1Cl,8.19 µM,> 50
COc1ccc2nc3cc(Cl)ccc3c(NCCNCC(C)O)c2c1 (stereo not given),2.19 µM,9.78
CCCOc1cc2ccccc2cc1C(=O)Nc1nc(N)c2c(ccc3nccc32)[nH]1,0.0655 µM,2.08
CC1(C)OC1COc1c2occc2cc2ccc(=O)oc12 (stereo not given),–,> 100
Nc1n[nH]c2cc(F)c([C@@H]3Nc4ccc5[nH]ncc5c4[C@H]4C5CCC(C5)[C@@H]34)cc12 (stereo not given in full),1.03 µM,> 35
COc1ccc(CCN=C2NC(=O)/C(=C/c3ccc4ncccc4c3)S2)cc1,> 25 µM,> 25

# Test system: UO-31 renal
# Assay: inhibition of tumour cell growth, NCI panel, 48 h
Compound,GI50,TGI
O=C1NC(=NC(CO)Cc2ccccc2)S/C1=C\c1ccc2ncccc2c1 (stereo not given),16400 nM and 5820 nM,> 25 µM and 16.8 µM
Cc1nnc(NC(=O)c2nc(S(=O)(=O)Cc3ccc(F)cc3)ncc2Cl)s1,7150 nM,20.6 µM
CC(C)[C@@H]1C=C2CC[C@H]3[C@](C)(CN)CCC[C@]3(C)[C@H]2CC1,3330 nM,16.1 µM
Nc1cc(NN=C(c2ccc(O)cc2)c2ccc(O)cc2)c([N+](=O)[O-])cc1[N+](=O)[O-],1810 nM,4.87 µM
O=C(Nc1ccc(Oc2ccc(Nc3nc4ccccc4s3)cc2)cc1)Nc1ccc(Cl)c(C(F)(F)F)c1,1220 nM,2.82 µM
Nc1c(C(=O)Nc2cccc(C(F)(F)F)c2)sc2nc3c(cc12)CCCCC3,1640 nM,4.88 µM
Nc1ccc(C2=NNC(=O)Cc3cc4c(cc32)OCCO4)cc1Cl,16800 nM,> 50 µM
COc1ccc2nc3cc(Cl)ccc3c(NCCNCC(C)O)c2c1 (stereo not given),1730 nM,4.85 µM
CCCOc1cc2ccccc2cc1C(=O)Nc1nc(N)c2c(ccc3nccc32)[nH]1,703 nM,2.4 µM
CC1(C)OC1COc1c2occc2cc2ccc(=O)oc12 (stereo not given),–,> 100 µM
Nc1n[nH]c2cc(F)c([C@@H]3Nc4ccc5[nH]ncc5c4[C@H]4C5CCC(C5)[C@@H]34)cc12 (stereo not given in full),651 nM,30.8 µM
COc1ccc(CCN=C2NC(=O)/C(=C/c3ccc4ncccc4c3)S2)cc1,> 25000 nM,> 25 µM
